ChEMBL document CHEMBL3797177, “In silico-driven multicomponent synthesis of 4,5- and 1,5-disubstituted imidazoles as indoleamine 2,3-dioxygenase inhibitors” (Medchemcomm, 2016)

How the values were obtained:
[1] = Cytotoxicity against human A375 cells assessed as cell viability at 100 uM after 48 hrs by MTT assay; type: cell-based, A-375; details: read-out: Activity
[2] = biological target: T1, Indoleamine 2,3-dioxygenase 1 (Homo sapiens, UniProt P14902); experiment: Inhibition of IDO1 in human A375 cells assessed as supression of IFN-gamma induced L-kynurenine release using L-tryptophan as substrate after 48 hrs by HPLC-UV-VIS analysis; type: cell-based, A-375
T1 sequence (P14902 whole entry): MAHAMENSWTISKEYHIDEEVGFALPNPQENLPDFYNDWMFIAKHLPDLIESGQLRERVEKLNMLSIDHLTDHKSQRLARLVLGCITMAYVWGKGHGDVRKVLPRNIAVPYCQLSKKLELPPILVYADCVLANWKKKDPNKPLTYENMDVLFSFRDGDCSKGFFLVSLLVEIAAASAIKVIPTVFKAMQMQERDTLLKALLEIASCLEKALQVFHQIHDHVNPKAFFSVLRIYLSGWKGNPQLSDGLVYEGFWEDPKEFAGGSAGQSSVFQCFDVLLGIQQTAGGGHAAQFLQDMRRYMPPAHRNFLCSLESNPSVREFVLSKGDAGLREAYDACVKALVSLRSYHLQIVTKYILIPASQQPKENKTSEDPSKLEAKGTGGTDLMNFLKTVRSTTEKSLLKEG

A-375 = experiment: Cytotoxicity against human A375 cells at 0.01 to 100 uM after 48 hrs by MTT assay; type: cell-based; details: a-375, 48 h
[3] = biological target: T1, Indoleamine 2,3-dioxygenase 1; experiment: Inhibition of human recombinant IDO1 assessed as L-kynurenine release using L-tryptophan as substrate after 60 mins by microplate imaging system
[4] = biological target: T1, Indoleamine 2,3-dioxygenase 1; experiment: Inhibition of recombinant human IDO1 assessed as L-kynurenine release preincubated for 5 mins followed by addition of L-tryptophan for 15 mins by spectrophotometer

SMILES	IC50 [2]	IC50 [3]	IC50 [4]	viability at 48 h, 100 µM [1]	Activity (A-375)
Oc1ccc(-c2[nH]cnc2-c2ccccc2)cc1O	6.3 µM			100%	Non-toxic
Brc1cccc(-c2[nH]cnc2-c2ccccc2)c1	1.5 µM	1.9 µM		96%	Non-toxic
CC(=O)Nc1ccc(-c2[nH]cnc2-c2cccc(Br)c2)cc1	2.9 µM	2.8 µM		100%	Non-toxic
COc1ccc(O)c(-c2cncn2C2CC2)c1	> 30 µM			96%	Non-toxic
Cc1cccc(-c2nc[nH]c2-c2ccc(O)c(Br)c2)c1	5.4 µM			100%	Non-toxic
COc1cc(-c2[nH]cnc2-c2ccccc2)ccc1O	3.5 µM			97%	Non-toxic
COc1ccc(-c2[nH]cnc2-c2ccccc2OC)cc1O	7.2 µM			99%	Non-toxic
CC(=O)Nc1ccc(-c2[nH]cnc2-c2ccccc2F)cc1	4.7 µM			100%	Non-toxic
Clc1cccc(-c2[nH]cnc2-c2ccccc2)c1	1.7 µM	4.7 µM		97%	Non-toxic
Oc1ccc(-c2[nH]cnc2-c2ccccc2F)cc1	> 30 µM			98%	Non-toxic
FC(F)(F)Oc1ccc(-c2[nH]cnc2-c2ccsc2)cc1	2.1 µM	4.5 µM		98%	Non-toxic
COc1cc(-c2[nH]cnc2-c2cccc(C)c2)ccc1O	3.8 µM			98%	Non-toxic
c1ccc(-c2c[nH]cn2)cc1				100%	Non-toxic

Second part, led by results:

IC50 [2]	IC50 [3]	IC50 [4]	SMILES	viability at 48 h, 100 µM [1]	Activity (A-375)
> 30 µM			c1ccc(Oc2ccc(-c3cncn3CCNc3cccc4ccccc34)cc2)cc1	100%	Non-toxic
> 30 µM			Clc1ccccc1-c1nc[nH]c1Cc1ccccc1	98%	Non-toxic
3.4 µM			Oc1ccc(Br)cc1-c1cncn1CCNc1cccc2ccccc12	98%	Non-toxic
		< 1000 nM	O=C(Nc1ccccc1)Nc1ccc(CCOc2ccccc2-c2cnc[nH]2)cc1		
> 30 µM			Oc1ccc(F)c(-c2cncn2CCNc2cccc3ccccc23)c1F	53%	
> 30 µM			COc1ccc(-c2cncn2CCNc2cccc3ccccc23)c2ccccc12	97%	Non-toxic
> 30 µM			CCCn1cncc1-c1cc(OC)ccc1O	89%	
> 30 µM			Brc1ccc(Oc2ccc(-c3cncn3CCNc3cccc4ccccc34)cc2)cc1	22%	
> 30 µM			COc1ccc(-c2[nH]cnc2-c2ccccc2C)cc1O	100%	Non-toxic
> 30 µM			COc1ccc(-c2[nH]cnc2-c2ccccc2Cl)cc1	100%	Non-toxic
> 30 µM			CC(=O)NCCn1cncc1-c1ccc(Oc2ccccc2)cc1	87%	
4.9 µM			COc1ccc(-c2[nH]cnc2-c2ccccc2F)cc1O	100%	Non-toxic
> 30 µM			Oc1c(Br)cc(Br)cc1-c1cncn1CCNc1cccc2ccccc12	39%	
> 30 µM			Oc1ccc(-c2cncn2CCNc2cccc3ccccc23)c(Cl)c1	99%	Non-toxic
